From patent US12582641B2, “Sulfur-containing compound based on glutarimide skeleton and application thereof” (SHANGHAITECH UNIVERSITY, priority 2019, dated 2026)

Test system: MM.1S cells
Assay: Proliferation inhibition (IC50) in MM.1S cells, cell viability assay
Conditions: Homo sapiens, MM1.S, 72 h, read-out: IC50 (nM), proliferation inhibitory activity of MM.1S cells (half inhibitory concentration)
Method: MM.1S (B lymphoblast) was purchased from ATCC. Complete medium was RPMI1640 supplemented with 10% FBS and 1% Penicillin-Streptomycin. The cells used were identified as correct cells by STR cells, and were negative for mycoplasma through routine inspections.
IC50 values of the compounds of the present disclosure were measured using Cell Titer Blue, Cell Titer GLO, or WST reagent from Promega Company. Assay details are as follows: Cells were seeded in 100 μL RPMI1640 complete medium containing serum at a density of 15,000 cells/well. After 24 h, the inoculated cells were treated with diluted commercial inhibitor and the compounds of the present disclosure to be tested after serial dilution. After the cells were treated with the compounds of the present disclosure to be tested for 72 h, cell viability was determined after adding the cell viability detection kit listed above according to the reagent operating instructions. The negative control was DMSO, and the positive control was a commercial inhibitor, both of which were used to treat the cells through the same method as that of the compounds of the present disclosure. The growth inhibition of the compounds of the present disclosure on cells was plotted by Prism Graphpad software, and the IC50 values of the compounds of the present disclosure were calculated therefrom.
We tested the activities of the compounds of the present invention in MM.1S cell (which overexpressed IKZF1/3 and is highly sensitive to immunomodulatory drugs) through a dose-dependent manner. The cells were treated with the compounds of the present invention at 10 different successively decreasing concentrations (starting at the highest concentration of 10 μM; 5-fold serial dilutions) for 72 h, and then the cell viability determination was performed in accordance with CCK-8 reagent operating instructions. The experiment was repeated more than three times.

Compound	IC50 [nM]
O=C1CCC(N2Cc3c(SCCCCCCCCNc4ncnc5ccccc45)cccc3C2=O)C(=O)N1 (centres unmarked) [SIAIS264011, 3-(1-oxo-4-((8-(quinazolin-4-ylamino)octyl)thio)isoindolin-2-yl)piperidine-2,6-dione]	0.34
O=C1CCC(N2Cc3c(SCCCCCCCCN4CCCCC4=O)cccc3C2=O)C(=O)N1 (centres unmarked) [SIAIS264019, 3-(1-oxo-4-((8-(2-oxopiperidin-1-yl)octyl)thio)isoindolin-2-yl)piperidine-2,6-dione]	0.13
O=C1CCC(N2Cc3c(SCCCCCCCOC4C5CC6CC(C5)CC4C6)cccc3C2=O)C(=O)N1 (centres unmarked) [SIAIS269159, 3-(4-((7-(adamantan-2-yloxy)heptyl)thio)-1-oxoisoindolin-2-yl)piperidine-2,6-dione]	0.068
O=C1CCC(N2Cc3cc(SCCCCCCCNC45CC6CC(CC(C6)C4)C5)ccc3C2=O)C(=O)N1 (centres unmarked) [SIAIS271167, 3-(5-((7-((adamantan-1-yl)amino)heptyl)thio)-1-oxoisoindolin-2-yl)piperidine-2,6-dione]	164
CN(CCCCNC(=O)CSc1cccc2c1CN(C1CCC(=O)NC1=O)C2=O)C12CC3CC(CC(C3)C1)C2 (centres unmarked) [SIAIS287105, N-(4-(adamantan-1-yl(methyl)amino)butyl)-2-((2-(2,6-dioxopiperidin-3-yl)-1-oxoisoindolin-4-yl)thio)acetamide]	5.01
O=C1CCC(N2Cc3c(SCc4csc(CN5CCOCC5)n4)cccc3C2=O)C(=O)N1 (centres unmarked) [SIAIS313163, 3-(4-(((2-(morpholinomethyl)thiazol-4-yl)methyl)thio)-1-oxoisoindolin-2-yl)piperidine-2,6-dione]	9.38 ± 1.37
O=C1CCC(N2Cc3c(SCc4csc(CN5CCCCC5)n4)cccc3C2=O)C(=O)N1 (centres unmarked) [SIAIS313164, 3-(1-oxo-4-(((2-(piperidin-1-ylmethyl)thiazol-4-yl)methyl)thio)isoindolin-2-yl)piperidine-2,6-dione]	2.78 ± 0.73
O=C1CCC(N2Cc3c(SCc4csc(CN5CCCCCC5)n4)cccc3C2=O)C(=O)N1 (centres unmarked) [SIAIS313165, 3-(4-(((2-(azepan-1-ylmethyl)thiazol-4-yl)methyl)thio)-1-oxoisoindolin-2-yl)piperidine-2,6-dione]	2.77 ± 1.12
O=C1CCC(N2Cc3c(SCc4csc(CNC5CCCC5)n4)cccc3C2=O)C(=O)N1 (centres unmarked) [SIAIS313166, 3-(4-(((2-((cyclopentylamino)methyl)thiazol-4-yl)methyl)thio)-1-oxoisoindolin-2-yl)piperidine-2,6-dione]	7.55 ± 1.89
O=C1CCC(N2Cc3c(SCc4nc(CN5CCOCC5)cs4)cccc3C2=O)C(=O)N1 (centres unmarked) [SIAIS313169, 3-(4-(((4-(morpholinomethyl)thiazol-2-yl)methyl)thio)-1-oxoisoindolin-2-yl)piperidine-2,6-dione]	5.03 ± 2.13
O=C1CCC(N2Cc3c(SCc4nc(CN5CCCCC5)cs4)cccc3C2=O)C(=O)N1 (centres unmarked) [SIAIS313170, 3-(1-oxo-4-(((4-(piperidin-1-ylmethyl)thiazol-2-yl)methyl)thio)isoindolin-2-yl)piperidine-2,6-dione]	2.56 ± 0.56
O=C1CCC(N2Cc3c(SCc4nc(CN5CCCCCC5)cs4)cccc3C2=O)C(=O)N1 (centres unmarked) [SIAIS313171, 3-(4-(((4-(azepan-1-ylmethyl)thiazol-2-yl)methyl)thio)-1-oxoisoindolin-2-yl)piperidine-2,6-dione]	1.34 ± 0.32
CC1CC(C)CN(Cc2csc(CSc3cccc4c3CN(C3CCC(=O)NC3=O)C4=O)n2)C1 (centres unmarked) [SIAIS313186, 3-(4-(((4-((3,5-dimethylpiperidin-1-yl)methyl)thiazol-2-yl)methyl)thio)-1-oxoisoindolin-2-yl)piperidine-2,6-dione]	1.63 ± 0.61

Results, then the molecule that gave them:

IC50 [nM]	Compound
0.83	O=C1CCC(N2Cc3c(SCCCCCCCCO)cccc3C2=O)C(=O)N1 (centres unmarked) [SIAIS264006, 3-(4-((8-hydroxyoctyl)thio)-1-oxoisoindolin-2-yl)piperidine-2,6-dione]
0.051	O=C1CCC(N2Cc3c(SCCCCCCCN4CCCCC4=O)cccc3C2=O)C(=O)N1 (centres unmarked) [SIAIS264042, 3-(1-oxo-4-((7-(2-oxopiperidin-1-yl)heptyl)thio)isoindolin-2-yl)piperidine-2,6-dione]
3.79	Cc1ccc(NC(=O)NCCSc2cccc3c2CN(C2CCC(=O)NC2=O)C3=O)cc1Cl (centres unmarked) [SIAIS269012, 1-(3-chloro-4-methylphenyl)-3-(2-((2-(2,6-dioxopiperidin-3-yl)-1-oxoisoindolin-4-yl)thio)ethyl)urea]
0.901	Cc1ccc(NC(=O)NCCCCCCCSc2cccc3c2CN(C2CCC(=O)NC2=O)C3=O)cc1Cl (centres unmarked) [SIAIS269068, 1-(3-chloro-4-methylphenyl)-3-(7-((2-(2,6-dioxopiperidin-3-yl)-1-oxoisoindolin-4-yl)thio)heptyl)urea]
0.468	Cc1ccc(NC(=O)NCCCCCCCCSc2cccc3c2CN(C2CCC(=O)NC2=O)C3=O)cc1Cl (centres unmarked) [SIAIS269072, 1-(3-chloro-4-methylphenyl)-3-(8-((2-(2,6-dioxopiperidin-3-yl)-1-oxoisoindolin-4-yl)thio)octyl)urea]
0.334	Cc1ccc(NC(=O)NCCCCSc2cccc3c2CN(C2CCC(=O)NC2=O)C3=O)cc1Cl (centres unmarked) [SIAIS269095, 1-(3-chloro-4-methylphenyl)-3-(4-((2-(2,6-dioxopiperidin-3-yl)-1-oxoisoindolin-4-yl)thio)butyl)urea]
2.29 ± 0.95	O=C1CCC(N2Cc3c(SCc4ccc(CN5CCCCC5)o4)cccc3C2=O)C(=O)N1 (centres unmarked) [SIAIS313123, 3-(1-oxo-4-(((5-(piperidin-1-ylmethyl)furan-2-yl)methyl)thio)isoindolin-2-yl)piperidine-2,6-dione]
2.97 ± 0.79	O=C1CCC(N2Cc3c(SCc4ccc(CN5CCOCC5)o4)cccc3C2=O)C(=O)N1 (centres unmarked) [SIAIS313126, 3-(4-(((5-(morpholinomethyl)furan-2-yl)methyl)thio)-1-oxoisoindolin-2-yl)piperidine-2,6-dione]
0.97 ± 0.55	C[C@H](NCc1ccc(CSc2cccc3c2CN(C2CCC(=O)NC2=O)C3=O)o1)C1CC1 (stereo partly drawn) [SIAIS313129, 3-(4-(((5-((((S)-1-cyclopropylethyl)amino)methyl)furan-2-yl)methyl)thio)-1-oxoisoindolin-2-yl)piperidine-2,6-dione]
2.62 ± 0.94	O=C1CCC(N2Cc3c(SCc4ccc(CN5CCCCCC5)o4)cccc3C2=O)C(=O)N1 (centres unmarked) [SIAIS313135, 3-(4-(((5-(azepan-1-ylmethyl)furan-2-yl)methyl)thio)-1-oxoisoindolin-2-yl)piperidine-2,6-dione]
0.95 ± 0.45	O=C1CCC(N2Cc3c(SCc4ccc(CNC5CCCC5)o4)cccc3C2=O)C(=O)N1 (centres unmarked) [SIAIS313148, 3-(4-(((5-((cyclopentylamino)methyl)furan-2-yl)methyl)thio)-1-oxoisoindolin-2-yl)piperidine-2,6-dione]
1.3 ± 0.96	O=C1CCC(N2Cc3c(SCc4ccc(CNCC5CCCCO5)o4)cccc3C2=O)C(=O)N1 (centres unmarked) [SIAIS313149, 3-(1-oxo-4-(((5-((((tetrahydro-2H-pyran-2-yl)methyl)amino)methyl)furan-2-yl)methyl)thio)isoindolin-2-yl)piperidine-2,6-dione]
0.7 ± 0.27	O=C1CCC(N2Cc3c(SCc4ccc(CNC(C5CC5)C5CC5)o4)cccc3C2=O)C(=O)N1 (centres unmarked) [SIAIS313150, 3-(4-(((5-(((dicyclopropylmethyl)amino)methyl)furan-2-yl)methyl)thio)-1-oxoisoindolin-2-yl)piperidine-2,6-dione]
